Paper PMC3939009, “Thrombin inhibitory activity of some polyphenolic compounds” (Medicinal Chemistry Research, 2013)
Read-outs that look alike come from different tables or passages of the source.

Legend:
[1] = target: T1, human thrombin (Homo sapiens, UniProt P00734); test: BIAcore (SPR) analysis of binding to immobilized thrombin; set-up: Thrombin, also known as an active plasma coagulation factor II; purchased Sigma-Aldrich Chemical Co. (St. Louis, MO, USA) T7009; conditions: for Kd: read-out: K D, equilibrium dissociation constant; for kon: read-out: k a, association rate; for koff: read-out: k d, dissociation rate; for Response (RU): analyte 1,000 μM, thrombin immobilized on CM5 chip
Protocol: The biosensor assays were performed using the BIAcore 1000 biosensor system. All biosensor analyses were performed with a phosphate-buffered saline (PBS), pH 7.4, as a running buffer. […] The immobilization of thrombin on a biosensor carboxylmethyl dextran surface was performed according to the BIA applications Handbook (BIAcore, [1994]). The process of protein immobilization was performed on a sensor chip CM5 surface by the positively charged functional groups of protein amino acids. The immobilization process consisted of four steps: preconcentration, activation, ligand immobilization and deactivation of the residual NHS esters. […] The temperature during the whole experiment was also constant and was set to 25.0 °C. […] Each of these solutions (10 μl) was injected into an empty sensor chip channel. […] The amount of injected activation mixture was modified, to regulate the amount of immobilized ligand. […] The conditions of the latter experiments were established by numerous pre-tests. The assessed parameters included: the buffer flow rate, the volume of analyte injection, the concentration of analytes, types and concentration of regenerators. […] For each injection of analyte solution, the volume used was 100 μl. After injection of analyte was completed, the dissociation step occurred and the level of the interaction ligand-analyte was measured. During dissociation, the particles non-covalently bound to the ligand were washed out from the working channel. […] To do these calculations, the formulas presented below were used: the association rate […]]; the dissociation rate -d[AB]/dt=kd·[AB]; the equilibrium constants: KA=[AB]/[A]·[B]=ka/kd KD=[A]·[B]/[AB]=kd/ka.

[2] = target: T1, human thrombin; test: Amidolytic activity of thrombin (hydrolysis of chromogenic substrate D-Phe-Pip-Arg-pNA); format: biochemical; set-up: Thrombin, also known as an active plasma coagulation factor II; purchased Sigma-Aldrich Chemical Co. (St. Louis, MO, USA) T7009; host or cells: purified from human plasma; conditions: at 375 μM substrate concentration; compounds 0.1–1,000 μM, preincubation 10 min 37 °C; read-out: IC50, amidolytic activity of human thrombin
Protocol: (§1) All tested compounds were dissolved in 50 % DMSO to the initial concentration of 10 mM; other solutions of compounds were also prepared in 50 % DMSO (prepared in 50 mM TBS, pH 7.4). The final concentration of DMSO in thrombin samples was 5 %. To prepare thrombin control samples, the same volume of solvent (50 % DMSO prepared in 50 mM TBS, pH 7.4) was added as in the case of the compound volume and warmed for 10 min to 37 °C.
To each reaction well, 40 μl of 3 mM chromogenic substrate was added. To initiate the chromogenic reaction, 280 μl of control thrombin (without tested compounds) or thrombin after preincubation with a polyphenolic compound to every reaction well in the same moment was added. The absorbance value was monitored every 12 s for 10 min. The maximal velocity of the reaction (V max, Δm OD/min) for each absorbance curve was determined. IC50 value (parameter) for every polyphenolic compound from inhibition curves was estimated.

[3] = target: T1, human thrombin; test: Analysis of thrombin inhibition parameters (Lineweaver–Burk curves); format: biochemical; set-up: Thrombin, also known as an active plasma coagulation factor II; purchased Sigma-Aldrich Chemical Co. (St. Louis, MO, USA) T7009; conditions: for k cat: compound at IC50 concentration, k cat = V max/E 0, control 29.1; for Type of inhibition: from Lineweaver–Burk curves; for V max of chromogenic substrate hydrolysis by thrombin / K m of chromogenic substrate hydrolysis by thrombin: thrombin incubated with compound at IC50 concentration; for V max of chromogenic substrate hydrolysis by thrombin: control 30.7; for K m of chromogenic substrate hydrolysis by thrombin: control 158.7
Protocol: Absorbance was monitored every 12 s for 10 min in a 96-well microplate reader. The velocity of reaction was expressed as the increase in product (pNA) over time (∆ μmol/min) using a computer program Mikcroplate Manager® 8 and the extinction coefficient of p-nitroaniline. […] Then, the Lineweaver–Burk ([1934]) curves for thrombin in the presence and in the absence of polyphenol compounds were plotted. The Lineweaver–Burk equation, which is a transformation of the Michaelis–Menten model, looks as follows: 1/V=Km/Vmax·1/[S]+1/Vmax

[4] = test system: human thrombin; test: Thrombin-induced platelet aggregation (turbidimetric); format: cell-based; conditions: compound preincubated with thrombin
Protocol: Blood samples in 0.32 % sodium citrate from healthy volunteers without cardiovascular disorders were collected, untreated with antiplatelet drugs. […] Platelets were isolated from PRP using BSA–Sepharose 2B gel filtration method according to Walkowiak et al. ([2000]). […] In these preparations, to nine volumes of thrombin one volume of polyphenolic compounds was added (final thrombin concentration was 15.8 nM). All tested compounds were dissolved in 50 % DMSO to the initial concentration of 10 mM; other solutions of compounds were also prepared in 50 % DMSO (prepared in 50 mM TBS, pH 7.4). […] The platelet aggregation was measured by turbidimetric method (Saluk-Juszczak et al., [2007]) using dual-channel Chrono-log optical aggregometer (Chronolog, USA). […] Platelet suspensions were pre-warmed at 37 °C with stirring.

[5] = target: T1, human thrombin; test: Thrombin-induced fibrinogen polymerization; format: biochemical; set-up: Thrombin, also known as an active plasma coagulation factor II; purchased Sigma-Aldrich Chemical Co. (St. Louis, MO, USA) T7009; conditions: thrombin preincubated with compound, 10 min 37 °C
Protocol: In these preparations, to nine volumes of thrombin one volume of polyphenolic compounds was added (final thrombin concentration was 15.8 nM). All tested compounds were dissolved in 50 % DMSO to the initial concentration of 10 mM; other solutions of compounds were also prepared in 50 % DMSO (prepared in 50 mM TBS, pH 7.4). […] Polymerization of fibrin was monitored at 595 nm using a 96-well microtiter plate reader. To each reaction well of the microtiter plate, 100 μl of fibrinogen (3 mg/ml) in 50 mM TBS and 5 mM CaCl2, pH 7.4, were added. […] The maximal velocity of the polymerization process (V max, Δm OD/min) for each absorbance curve was determined (Nowak et al., [2007]).

[6] = target: T1, human thrombin; test: SDS-PAGE analysis of thrombin-induced cross-linked fibrin formation; format: biochemical; set-up: Thrombin, also known as an active plasma coagulation factor II; purchased Sigma-Aldrich Chemical Co. (St. Louis, MO, USA) T7009; host or cells: purified from human plasma; conditions: cyanin 75 and 750 μM, (+)-catechin 125 and 1,000 μM, (−)-epicatechin 150 and 1,000 μM
Protocol: as §1, with “In these preparations, to nine volumes of thrombin one volume of polyphenolic compounds was added (final thrombin concentration was 15.8 nM). All” for “All”
The reactions incubated at 37 °C were stopped after 5, 15 and 30 min by adding 150 μl of lysis buffer (0.125 M Tris/HCl, 4 % SDS, 8 M urea, 10 % β-mercaptoethanol, pH 6.8). Samples were subjected to SDS-PAGE (polyacrylamide concentration—7.5 %) using Mini-Protean Electrophoresis Cell (Bio-Rad, Hercules, CA). Proteins were stained with Coomassie Brilliant Blue R250 (CBB).

Row | K A, equilibrium association constant ([1]; 5 sensorgrams, 50 to 1,000 μM) [M⁻¹] | Kd ([1]; 5 sensorgrams, 50 to 1,000 μM) [µM] | kon ([1]; 5 sensorgrams, 50 to 1,000 μM) [M⁻¹ s⁻¹] | koff ([1]; 5 sensorgrams, 50 to 1,000 μM) [s⁻¹] | Response (RU) [1] [RU] | IC50 [2] [µM] | k cat [3] [s⁻¹] | Type of inhibition [3] | V max of chromogenic substrate hydrolysis by thrombin [3] | K m of chromogenic substrate hydrolysis by thrombin [3] | Changes in electrophoresis of fibrinogen treated with preincubated thrombin [6] | K A, equilibrium association constant [1] [M^–1] | SMILES | Effect on thrombin ability to stimulate platelet aggregation [4] | Effect on thrombin ability to induce fibrinogen polymerization [5]
1 | 20300 | 49.2 | 3.62 | 0.000178 | 717 | 125 | 29.5 | competitive inhibitors | 31.2 10^−6 mol/min | 700.1 10^−6 M | no changes were observed | – | Oc1cc(O)c2c(c1)O[C@H](c1ccc(O)c(O)c1)[C@@H](O)C2 [(+)-Catechin, (+)-catechin] | no effect on thrombin ability to stimulate platelets aggregation | inhibitory effect of polymerization of human fibrinogen was not observed
2 | 192 | 5190 | 4.37 | 0.0227 | 431 | 150 | 27.8 | competitive inhibitors | 29.4 10^−6 mol/min | 481.5 10^−6 M | no changes were observed | 192 | Oc1cc(O)c2c(c1)O[C@H](c1ccc(O)c(O)c1)[C@H](O)C2 [(−)-Epicatechin, (−)-epicatechin] | no effect on thrombin ability to stimulate platelets aggregation | inhibitory effect of polymerization of human fibrinogen was not observed
3 | 115 | 8630 | 0.95 | 0.00824 | 827 | 75 | 19.7 | mixed type of inhibition | 20.8 10^−6 mol/min | 344.6 10^−6 M | no changes were observed | 115 | OC[C@H]1O[C@@H](Oc2cc3c(O[C@@H]4O[C@H](CO)[C@@H](O)[C@H](O)[C@H]4O)cc(O)cc3[o+]c2-c2ccc(O)c(O)c2)[C@H](O)[C@@H](O)[C@@H]1O [Cyanin, cyanin] | no effect on thrombin ability to stimulate platelets aggregation | inhibitory effect of polymerization of human fibrinogen was not observed
